# Measured values taken from patent publication US9888688B2, “Tetrazolinone compounds and applications thereof” (Sumitomo Chemical Company, Limited, priority 2013, dated 2018).
# Experiments:
# Format in all cases: in vivo
# [1] = tested on: wheat leaf blotch fungus (Septoria tritici); assay: Wheat leaf blotch control test, spray before inoculation (Test Examples 6, 9, 10, Comparative Test Example); conditions: 500 ppm foliar spray, wheat APOGEE, inoculated after 4 days
# [2] = tested on: cotton aphid (Aphis gossypii); assay: Cotton aphid control test on cucumber (Test Example 32); conditions: 144 h, 20 mL sprayed on cucumber, after 6 days
# Method: In the present Test Example, a water dilution containing a surfactant prepared by adjusting so as to contain a predetermined concentration (500 ppm) of the present compound was used as a test chemical solution. Thirty (30) heads of cotton aphid (Aphis gossypii) (including adults and larvae) were released on the leaves of cucumber grown in a polyethylene cup until the first true leaf was developed. Next day, 20 mL of the above test chemical solution was sprayed. After 6 days, the number of the surviving insects was counted and the control value was calculated by the following equation. Control value (%)={1−(Cb×Tai)/(Cai×Tb)}×100 wherein symbols in the equation represent the followings: Cb: Number of insects before spraying chemical solution in untreated area; Cai: Number of surviving insects in untreated area; Tb: Number of insects before spraying chemical solution in treated area; and Tai: Number of surviving insects in treated area.
# [3] = tested on: cabbage moth (Plutella xylostella); assay: Cabbage moth larvae mortality test on cabbage (Test Example 31); conditions: 120 h, 500 ppm spray on cabbage 20 mL/cup, third instar larvae, 25° C., after 5 days
# Method: (§1) In the present Test Example, a water dilution containing a surfactant prepared by adjusting so as to contain a predetermined concentration (500 ppm) of the present compound was used as a test chemical solution.
# Cabbage was planted in each of polyethylene cups and grown until the third true leaf or the fourth true leaf was developed. The above test chemical solution was sprayed over the cabbage (Brassicae oleracea) at a rate of 20 mL/cup. After drying the chemical solution, the polyethylene cup having a volume of 400 mL was covered. Ten (10) heads of third instar larvae of cabbage moth (Plutella xylostella) were released in the cup and the cup was covered with a Tetron fabric. The cup was held at 25° C. and, after 5 days, the number of the surviving insects was counted and the mortality of insects was calculated by the following equation.
# Mortality (%)=(number of dead insects/number of test insects)×100
# [4] = tested on: barley net blotch fungus (Pyrenophora teres); assay: Barley net blotch control test, foliar spray on barley (Test Examples 4, 16, 17, 18); conditions: 12.5 ppm foliar spray, barley NISHINOHOSHI, inoculated after 2 days
# [5] = tested on: common house mosquito (Culex pipiens pallens); assay: Common house mosquito larvae mortality test (Test Example 30); conditions: 192 h, 3.5 ppm active ingredient in water, last instar larvae, after 8 days
# Method: as §1
# The above test chemical solution (0.7 mL) was added to 100 mL of deionized water to adjust the concentration of an active ingredient to 3.5 ppm. Twenty (20) heads of last instar larvae of common house mosquito (Culex pipiens pallens) were released in the solution and the number of dead insects was counted after 8 days.
# Mortality was determined by the following equation. Mortality (%)=(number of dead insects/number of test insects)×100
SMILES,pest or weed control at 500 ppm [2] [%],also measured
"Cn1nnn(-c2ccccc2COc2ccc(-c3ccccc3)cc2)c1=O [1-methyl-4-[2-(4-phenyl-phenoxymethyl)-phenyl]-1,4-dihydrotetrazol-5-one, reference compound]",,area of lesion spots relative to that on an untreated plant [1]: ≥ 70%
CCOc1cccc(-n2nnn(C)c2=O)c1COc1ccc(-c2ccccn2)cc1C [Present Compound 8],≥ 90,
Cc1ccnc(-c2ccc(OCc3c(C)cccc3-n3nnn(C)c3=O)c(C)c2)c1 [Present Compound 20],≥ 90,
CCOc1cccc(-n2nnn(C)c2=O)c1COc1ccc(-c2ccc(Cl)cn2)cc1C [Present Compound 29],≥ 90,
CCOc1cccc(-n2nnn(C)c2=O)c1COc1ccc(-c2cccc(Cl)n2)cc1C [Present Compound 41],≥ 90,
CCc1cccc(-c2ccc(OCc3c(OC)cccc3-n3nnn(C)c3=O)c(C)c2)n1 [Present Compound 45],≥ 90,
Cc1cccc(-c2ccc(OCc3c(C)cccc3-n3nnn(C)c3=O)c(C)c2)n1 [Present Compound 48],,mortality at 500 ppm [3]: ≥ 90%
CCOc1cccc(-n2nnn(C)c2=O)c1COc1ccc(-c2cccc(C)n2)cc1C [Present Compound 53],,area of lesion spots relative to that on an untreated plant [4]: ≤ 30%
Cc1cccc(-c2ccc(OCc3c(C)cccc3-n3nnn(C)c3=O)c(C(F)(F)F)c2)n1 [Present Compound 59],≥ 90,
Cc1ccnc(-c2ccc(OCc3c(C4CC4)cccc3-n3nnn(C)c3=O)c(C)c2)n1 [Present Compound 92],,mortality at 500 ppm [3]: ≥ 90%
CCc1cccc(-n2nnn(C)c2=O)c1COc1ccc(-c2nccc(C)n2)cc1C [Present Compound 93],,mortality at 3.5 ppm [5]: 100%
Cc1cc(-c2cccc(C#N)n2)ccc1OCc1c(C2CC2)cccc1-n1nnn(C)c1=O [Present Compound 116],≥ 90,mortality at 3.5 ppm [5]: 100%
Cc1cccc(-c2ccc(OCc3ccccc3-n3nnn(C)c3=O)c(C(F)(F)F)c2)n1 [Present Compound 127],≥ 90,
CCc1cccc(-c2ccc(OCc3ccccc3-n3nnn(C)c3=O)c(C(F)(F)F)c2)n1 [Present Compound 130],≥ 90,
CCc1cccc(-c2ccc(OCc3c(C)cccc3-n3nnn(C)c3=O)c(C(F)(F)F)c2)n1 [Present Compound 131],≥ 90,
Cc1ccnc(-c2ccc(OCc3c(Cl)cccc3-n3nnn(C)c3=O)c(C(F)(F)F)c2)n1 [Present Compound 134],≥ 90,

SMILES,pest or weed control at 500 ppm [2] [%],also measured
Cc1ccnc(-c2ccc(OCc3ccccc3-n3nnn(C)c3=O)c(C(F)(F)F)c2)n1 [Present Compound 137],≥ 90,
CCc1cccc(-n2nnn(C)c2=O)c1COc1ccc(-c2nccc(C)n2)cc1C(F)(F)F [Present Compound 138],≥ 90,
C=C(C)c1cccc(-c2ccc(OCc3c(C)cccc3-n3nnn(C)c3=O)c(C)c2)n1 [Present Compound 148],≥ 90,
Cc1cc(-c2cccc(C(C)C)n2)ccc1OCc1c(C)cccc1-n1nnn(C)c1=O [Present Compound 149],≥ 90,
COc1cc(-c2cccc(C)n2)ccc1OCc1c(C)cccc1-n1nnn(C)c1=O [Present Compound 155],≥ 90,
Cc1cccc(-c2ccc(OCc3c(C)cccc3-n3nnn(C)c3=O)c(C#N)c2)n1 [Present Compound 156],≥ 90,
COc1ccncc1-c1cc(C)c(OCc2c(C)cccc2-n2nnn(C)c2=O)cc1C [Present Compound 192],≥ 90,
Cc1cc(-c2ccc(F)cn2)c(F)cc1OCc1c(C)cccc1-n1nnn(C)c1=O [Present Compound 195],≥ 90,
Cc1cccc(-n2nnn(C)c2=O)c1COc1cc(Cl)c(-c2ccccn2)cc1Cl [Present Compound 210],≥ 90,
CCc1cccc(-n2nnn(C)c2=O)c1COc1cc(C)c(-c2ccc(F)cn2)cc1C [Present Compound 215],,mortality at 3.5 ppm [5]: 100%
Cc1cc(-c2ccc(F)cn2)c(C)cc1OCc1c(C2CC2)cccc1-n1nnn(C)c1=O [Present Compound 219],≥ 90,
Cn1nnn(-c2ccccc2COc2ccc(-c3ccccn3)cc2)c1=O [Present Compound 223],,area of lesion spots relative to that on an untreated plant [1]: ≤ 30%
Cc1ccc(-c2ccc(OCc3c(C)cccc3-n3nnn(C)c3=O)c(C)c2)nn1 [Present Compound 234],≥ 90,
Cc1cc(-c2ncc(F)cn2)ccc1OCc1c(C)cccc1-n1nnn(C)c1=O [Present Compound 236],≥ 90,mortality at 3.5 ppm [5]: 100%
Cc1cc(-c2ncc(F)cn2)c(C)cc1OCc1c(C)cccc1-n1nnn(C)c1=O [Present Compound 238],≥ 90,
Cc1cc(-c2ncc(Cl)cn2)c(F)cc1OCc1c(C)cccc1-n1nnn(C)c1=O [Present Compound 242],,mortality at 3.5 ppm [5]: 100%
